This experiment has as its target T1, Aldose Reductase (Rattus norvegicus, UniProt P07943).
T1 construct: Aldose Reductase was isolated from Rat lens; from tissue; host or cells: rat lens
The experiment can be described thus: Aldose Reductase enzyme assay. It counts as biochemical. The following applies: Wistar rat lens enzyme. The procedure:
Experiments were conducted to test the effects of Morinda citrifolia products on Aldose Reductase. Aldose Reductase is an enzyme that is highly expressed in the eye (lens) of diabetic patients. High expression of Aldose Reductase may lead to blindness. Quantitation of Aldose Redutase activity was achieved by utilizing DL-Glyceraldehyde as a substrate. DL-Glyceraldehyde reacts with NADPH to form NADP+. A spectrophotometer was utilized to quantitiate levels of NADPH. Aldose Reductase was isolated from Rat lens. Quercertin was utilized as a reference compound. Methods employed in this study were adapted from the scientific literature to maximize reliability and reproducibility. […] Biochemical assay results are presented as the percent inhibition of specific binding or activity throughout the report. All other results are expressed in terms of that assay's quantitation method. For primary assays, only the lowest concentration with a significant response judged by the assays' criteria, is shown in this summary.

For the compound `O=c1c(O)c(-c2ccc(O)c(O)c2)oc2cc(O)cc(O)c12` [Quercetin], the “% INH. Aldose Reductase” value came out at 77% (conc. 1%) and 77% (conc. 5%).
